Laboratory results as given in patent publication US20080275075A1, “Medicine Comprising a Combination of an Acetylcholinesterase Inhibitor and a 5-Substituted-3-Oxadiazolyl-1,6-Naphthyridin-2(1H)-One Derivative” (priority 2004, published 2008).
Counter-ions that a name gives are not always drawn.

Key:
[1] = test system: spatial memory disorder induced by scopolamine; test: Ameliorating effect on spatial memory disorder induced by scopolamine (Y-maze alternation behavior); format: in vivo, ddY male mice; conditions: for Single administration [MED (mg/kg)]: minimum effective dose, 1 h before scopolamine 0.6 mg/kg s.c.; for Single administration [MED (mg/kg)] / # [MED (mg/kg)] Combined administration with donepezil: oral; for dose at which spatial memory disorder induced by scopolamine was significantly ameliorated: single oral administration; for # [MED (mg/kg)] Combined administration with donepezil: minimum effective dose of test compound, combined with donepezil 1 mg/kg
Protocol: (§1) The pharmacological experiment to investigate ameliorating effect on spatial memory disorder induced by scopolamine was carried out by systemic administration to animals according to the following method of Itoh, T. et al. In addition, the pharmacological experiment to investigate ameliorating effect on spatial memory disorder induced by MK-801 was carried out by systemic administration to animals according to the following method of Maurice, T. et al.
(§2) The spatial memory test using Y-maze apparatus which was selected for the pharmacological experiment is a test to utilize the behavioral property of animals to enter into a new arm, avoiding the arm that they entered into just before (alternation behavior). This method is often used in order to study spatial working memory.
This experiment was carried out according to the method of Itoh, J., et al. [Eur. J. Pharmacol., 236, pp. 341-345 (1993)].
Ten to twelve ddY male mice weighing 28-34 g were used per one group in the experiment. A solution of scopolamine in physiological saline (concentration: 0.06 mg/ml) was subcutaneously administered to mice in a volume of 0.1 ml/10 g of body weight, i.e., 0.6 mg/kg. […] However, the vehicle control group was injected with physiological saline instead of scopolamine. Thirty minutes after the administration of scopolamine, the mice were placed at the end of the arm A of the Y-maze apparatus which was composed of three black acrylic trapezoid arms (bottom width: 3 cm, height of side wall: 12 cm, width of opened ceiling: 10 cm, length: 40 cm), wherein said three arms were connected at the one end of each arm to form Y-shape and another ends were closed, and the three arms were differentiated by the names as A, B and C respectively, and allowed to search freely the maze for 8 minutes. When the mouse was checked to enter into an arm at the length of not less than 10 cm from the entrance of the arm, the name of the arm (A, B or C) was recorded. For the final data gotten, the ratio of the number of the alternation behavior to that of the entries (obtained by subtracting 2 from the total number of arm entries) was estimated as the rate of alternation behavior.
In statistical analysis, the rate of alternation behavior in the amnesia control group was compared with that in the vehicle control group by the Wilcoxon rank sum test and it was checked if a significant amnesia was induced in the amnesia control group. Next, the efficacy of the test compounds in single use or in combination use of the test compounds with donepezil was evaluated in comparison between the amnesia control group and the single-administration groups using each one of the test compound A, the test compound B or donepezil; or in comparison between the amnesia control group and the combination groups of the test compound A or B and donepezil, by the nonparametric Dunnett multiple comparison test. The statistical calculation was carried out with SAS® System (Release 8.02, SAS Institute Inc.) and Preclinical Package Version 5.0 (SAS Institute Japan Ltd.).

[2] = test system: spatial memory disorder induced by MK-801; test: Ameliorating effect on spatial memory disorder induced by MK-801 (Y-maze alternation behavior); format: in vivo, ddY male mice; conditions: for [MED (mg/kg)]: minimum effective dose, oral, 1 h before MK-801 0.1 mg/kg s.c., single administration
Protocol: as §1, §2
This experiment was carried out according to the method of Maurice, T., et al. [Brain Res., 647, pp. 44-56 (1994)].
Ten to twelve ddY male mice weighing 26-36 g were used per one group in the experiment. A solution of MK-801 in physiological saline (concentration: 0.01 mg/ml) was subcutaneously administered to mice in a volume of 0.1 ml/10 g of body weight, i.e., 0.1 mg/kg. One hour before MK-801 administration, the groups of mice to which each test compound should be singly administered were orally treated with test compound A, test compound B or donepezil suspended in 0.5% tragacanth solution in a volume of 0.1 ml/10 g of body weight; and the animals in the amnesia control group and the vehicle control group orally received a 0.5% tragacanth solution in a volume of 0.1 ml/10 g of body weight. However, the vehicle control group was injected with physiological saline instead of MK-801. Twenty minutes after administration of MK-801, the mice were placed at the end of the arm A of the Y-maze apparatus which was composed of three black acrylic trapezoid arms (bottom width: 3 cm, height of side wall: 12 cm, width of opened ceiling: 10 cm, length: 40 cm), wherein said three arms were connected at the one end of each arm to form Y-shape and another ends were closed, and the three arms were differentiated by the names as A, B and C respectively, and allowed to search freely the maze for 8 minutes. When the mouse was checked to enter into an arm at the length of not less than 10 cm from the entrance of the arm, the name of the arm (A, B or C) was recorded. For the final data gotten, the ratio of the number of the alternation behavior to that of the entries (obtained by subtracting 2 from the total number of arm entries) was estimated as the rate of alternation behavior.
In statistical analysis, the rate of alternation behavior in the amnesia control group was compared with that in the vehicle control group by the Wilcoxon rank sum test and it was checked if a significant amnesia was induced in the amnesia control group. Next, the efficacy of the test compounds was evaluated in comparison between the amnesia control group and each group of test compound A, test compound B or donepezil by the nonparametric Dunnett multiple comparison test. The statistical calculation was carried out with SAS® System (Release 8.02, SAS Institute Inc.) and Preclinical Package Version 5.0 (SAS Institute Japan Ltd.).

| SMILES | amelioration of spatial memory disorder induced by scopolamine ([1]; 1 mg/kg, single administration) | Single administration [MED (mg/kg)] ([1]; single administration) [mg/kg] | dose at which spatial memory disorder induced by scopolamine was significantly ameliorated [1] [mg/kg] | [MED (mg/kg)] [2] [mg/kg] | amelioration of spatial memory disorder induced by MK-801 ([2]; single oral administration) | rate of alternation behavior ([2]; amnesia control group, MK-801 0.1 mg/kg s.c., vehicle control group 65-73%) | # [MED (mg/kg)] Combined administration with donepezil ([1]; scopolamine 0.6 mg/kg s.c.) [mg/kg] | dose at which spatial memory disorder induced by MK-801 was significantly ameliorated ([2]; single oral administration) [mg/kg] | rate of alternation behavior ([1]; amnesia control group, scopolamine 0.6 mg/kg s.c., vehicle control group 63-70%) |
| --- | --- | --- | --- | --- | --- | --- | --- | --- | --- |
| COc1cc2c(cc1OC)C(=O)C(CC1CCN(Cc3ccccc3)CC1)C2 (centres unmarked) [Donepezil, Donepezil hydrochloride, reference compound] | not ameliorated | 10 | ≥ 10 | >15 | not ameliorated | – | – | – | – |
| C[C@]12N[C@H](Cc3ccccc31)c1ccccc12 [MK-801, dizocilipine maleate, reference compound] | – | – | – | – | – | 45-47% | – | – | – |
| COc1cccc(-c2nccc3[nH]c(=O)c(-c4noc(C)n4)cc23)c1 [Test compound A, 3-(5-methyl-1,2,4-oxadiazol-3-yl)-5-(3-methoxyphenyl)-1,6-naphthyridin-2(1H)-one] | – | 0.3 | ≥ 0.3 | 0.3 | – | – | 0.03 | ≥ 0.3 | – |
| O=c1[nH]c2ccnc(-c3ccsc3)c2cc1-c1nc(C2CC2)no1 [Test compound B, 3-(3-cyclopropyl-1,2,4-oxadiazol-5-yl)-5-(3-thienyl)-1,6-naphthyridin-2(1H)-one] | – | 0.1 | ≥ 0.1 | 0.1 | – | – | 0.01 | ≥ 0.1 | – |
| CN1[C@@H]2C[C@@H](OC(=O)[C@H](CO)c3ccccc3)C[C@H]1[C@@H]1O[C@@H]12 [scopolamine, Scopolamine hydrobromide, reference compound] | – | – | – | – | – | – | – | – | 39-46% |
